Test results published in patent US20240173289A1, “USE OF OXYMETHYL-MODIFIED DERIVATIVE OF QUERCETIN IN PREPARATION OF DRUG FOR INHIBITING TUMOR CELL PROLIFERATION” (ZHEJIANG UNIVERSITY, priority 2021, published 2024).
In brackets after ≈: the same amount, converted by molar mass. Like-named read-outs stand apart in the source and are kept apart here. One block for each compound: values may come before it.

Tests used:
[1] = tested on: human prostate cancer cells PC3; assay: in vitro cell proliferation inhibition (CCK-8); type: cell-based; settings: 48 h incubation
Text: (§1) Osteosarcoma cell line 143B, HOS, and U2, liver cancer cell line HepG2, breast cancer cell line MDA-MB-231 and T47D, gastric cancer cell line AGS, BGC-823, and SGC-7901, cervical cancer cells Hela, lung cancer cells A549, intestinal cancer cells Caco2, mouse glioma cells BV-2, human prostate cancer cells PC3, human thyroid cancer cell line BCPAP, human normal liver cell line L02, human normal gastric cell line GES, human umbilical vein epithelial cells HUVEC, and human embryonic lung fibroblasts WI-38 were cultured in a DMEM medium containing 10% fetal bovine serum and 1×HEPES in a humid incubator (37° C., 5% CO2). The cells were passaged with trypsin-EDTA in logarithmic phase. Certain density of cells (AGS, T47D, Caco2, BCPAP, GES, HUVEC 1×10^5 cells per well; HepG2, MDA-MB-231, BGC-823, A549, PC3, L02 8×10^4 cells per well; 143B, HOS, U2, SGC-7901, Hela, BV-2, 5×10^4 cells per well; WI-38, 3×10^5 cells per well) were inoculated in a 96-well plate, and cultured for 24 h before treatment. After replacing a fresh medium, 12.5 mg/L to 400 mg/L of quercetin, quercetin 3-methyl ether, and quercetin 3,3′-dimethyl ether dissolved with DMSO were added into the medium (a final volume ratio was 0.1%, and the DMSO was used as a […]). After incubation for 48 h, a complete medium was replaced with a serum-free medium containing 10% CCK-8 reagent. The absorbance at 450 nm and 620 nm was measured separately after the cells were incubated for 1 h. Each experiment was repeated three times independently.
as §1, with “400 mg/L,” for “400 mg/L”, “of” for “of quercetin, quercetin 3-methyl ether, and”, “DMSO was” for “DMSO were”, “into a” for “into the”

[2] = tested on: cervical cancer cells Hela; assay: in vitro cell proliferation inhibition (CCK-8); type: cell-based; settings: 48 h incubation
Text: as §1
as §1, with “400 mg/L,” for “400 mg/L”, “of” for “of quercetin, quercetin 3-methyl ether, and”, “DMSO was” for “DMSO were”, “into a” for “into the”

mouse glioma cells BV-2 = assay: in vitro cell proliferation inhibition (CCK-8); type: cell-based; settings: BV2, 48 h incubation
Text: as §1
as §1, with “400 mg/L,” for “400 mg/L”, “of” for “of quercetin, quercetin 3-methyl ether, and”, “DMSO was” for “DMSO were”, “into a” for “into the”

[3] = tested on: gastric cancer cell line SGC-7901; assay: in vitro cell proliferation inhibition (CCK-8); type: cell-based
Text: as §1
as §1, with “400 mg/L,” for “400 mg/L”, “of” for “of quercetin, quercetin 3-methyl ether, and”, “DMSO was” for “DMSO were”, “into a” for “into the”

[4] = tested on: Osteosarcoma cell line U2; assay: in vitro cell proliferation inhibition (CCK-8); type: cell-based; settings: 48 h incubation
Text: as §1
as §1, with “400 mg/L,” for “400 mg/L”, “of” for “of quercetin, quercetin 3-methyl ether, and”, “DMSO was” for “DMSO were”, “into a” for “into the”

[5] = tested on: Osteosarcoma cell line 143B; assay: in vitro cell proliferation inhibition (CCK-8); type: cell-based; settings: 48 h incubation
Text: as §1
as §1, with “400 mg/L,” for “400 mg/L”, “of” for “of quercetin, quercetin 3-methyl ether, and”, “DMSO was” for “DMSO were”, “into a” for “into the”

[6] = tested on: breast cancer cell line MDA-MB-231; assay: in vitro cell proliferation inhibition (CCK-8); type: cell-based; settings: 48 h incubation
Text: as §1
as §1, with “400 mg/L,” for “400 mg/L”, “of” for “of quercetin, quercetin 3-methyl ether, and”, “DMSO was” for “DMSO were”, “into a” for “into the”

[7] = tested on: Osteosarcoma cell line HOS; assay: in vitro cell proliferation inhibition (CCK-8); type: cell-based; settings: 48 h incubation
Text: as §1
as §1, with “400 mg/L,” for “400 mg/L”, “of” for “of quercetin, quercetin 3-methyl ether, and”, “DMSO was” for “DMSO were”, “into a” for “into the”

[8] = tested on: breast cancer cell line T47D; assay: in vitro cell proliferation inhibition (CCK-8); type: cell-based; settings: 48 h incubation
Text: as §1
as §1, with “400 mg/L,” for “400 mg/L”, “of” for “of quercetin, quercetin 3-methyl ether, and”, “DMSO was” for “DMSO were”, “into a” for “into the”

[9] = tested on: gastric cancer cell line AGS; assay: in vitro cell proliferation inhibition (CCK-8); type: cell-based; settings: 48 h incubation
Text: as §1
as §1, with “400 mg/L,” for “400 mg/L”, “of” for “of quercetin, quercetin 3-methyl ether, and”, “DMSO was” for “DMSO were”, “into a” for “into the”

[10] = tested on: human thyroid cancer cell line BCPAP; assay: in vitro cell proliferation inhibition (CCK-8); type: cell-based; settings: 48 h incubation
Text: as §1
as §1, with “400 mg/L,” for “400 mg/L”, “of” for “of quercetin, quercetin 3-methyl ether, and”, “DMSO was” for “DMSO were”, “into a” for “into the”

[11] = tested on: gastric cancer cell line BGC-823; assay: in vitro cell proliferation inhibition (CCK-8); type: cell-based
Text: as §1
as §1, with “400 mg/L,” for “400 mg/L”, “of” for “of quercetin, quercetin 3-methyl ether, and”, “DMSO was” for “DMSO were”, “into a” for “into the”

[12] = tested on: intestinal cancer cells Caco2; assay: in vitro cell proliferation inhibition (CCK-8); type: cell-based
Text: as §1
as §1, with “400 mg/L,” for “400 mg/L”, “of” for “of quercetin, quercetin 3-methyl ether, and”, “DMSO was” for “DMSO were”, “into a” for “into the”

lung cancer cells A549 = assay: in vitro cell proliferation inhibition (CCK-8); type: cell-based; settings: 48 h incubation
Text: as §1
as §1, with “400 mg/L,” for “400 mg/L”, “of” for “of quercetin, quercetin 3-methyl ether, and”, “DMSO was” for “DMSO were”, “into a” for “into the”

[13] = tested on: liver cancer cell line HepG2; assay: in vitro cell proliferation inhibition (CCK-8); type: cell-based; settings: 48 h incubation
Text: as §1
as §1, with “400 mg/L,” for “400 mg/L”, “of” for “of quercetin, quercetin 3-methyl ether, and”, “DMSO was” for “DMSO were”, “into a” for “into the”

[14] = tested on: HepG2 transplanted tumors; assay: proliferation of HepG2 transplanted tumors in nude mice in vivo; design: species or system BALB/c nude mice; settings: 10 mg/kg bw·d intraperitoneal; day 12
Protocol: BALB/c nude mice (5 to 6 weeks old), weighing 19 g to 22 g, were purchased from Shanghai Experimental Animal Center, Chinese Academy of Sciences. HepG2 cells were collected in a serum-free DMEM medium to make a cell suspension, and then the cell suspension was injected into an underarm area of each mouse, approximately 2.0×10^6 cells, one site per mouse. All mice were bred in the Experimental Animal Center of Zhejiang University, under the environment of 23° C. to 25° C., humidity 50% to 60%, and cycle of 12 h light illumination/dark 12 h. After tumor formation, the mice were randomly divided into 3 groups with 7 mice in each group. The model group was given saline by intraperitoneal injection; the positive drug group was given tegafur at 10 mg/kg bw·d by intraperitoneal injection; the treatment group was intraperitoneally injected with the quercetin 3,3′-dimethyl ether at 50 mg/kg bw·d. According to the change of tumor volume, after the tumor formed, intraperitoneal injection was conducted every 1 d to 2 d, the tumor volume was measured, and the body weight of the mice was weighed. When there was a significant difference in tumor volume between different treatment groups, the mice were sacrificed by cervical dislocation, and the tumor tissue was carefully peeled off, weighed, and calculated. The formulas were: tumor formation rate (%)=(number of tumor-forming mice in treatment group/number of tumor-forming mice in inoculation group)×100; tumor inhibition rate (%)=(average tumor weight in control group (g)−average tumor weight in administration group (g))/average tumor weight in control group (g)×100. Serum, liver, spleen, and kidney were collected and weighed.

- IC50 [1]: 368.40 mg/L (≈ 1160 µM)
- IC50 [2]: 82.34 mg/L (≈ 260 µM)
- IC50 (mouse glioma cells BV-2): 288.00 mg/L (≈ 911 µM)
- IC50 ([3]; SGC7901, 48 h incubation): 123.94 mg/L (≈ 392 µM)
- IC50 [4]: 377.08 mg/L (≈ 1190 µM)
- IC50 [5]: 210.34 mg/L (≈ 665 µM)
- IC50 [6]: 92.14 mg/L (≈ 291 µM)
- IC50 [7]: 130.84 mg/L (≈ 414 µM)
- IC50 [8]: 154.72 mg/L (≈ 489 µM)
- IC50 [9]: 117.04 mg/L (≈ 370 µM)
- IC50 [10]: 157.67 mg/L (≈ 499 µM)
- IC50 ([11]; BGC823, 48 h incubation): 192.55 mg/L (≈ 609 µM)
- IC50 ([12]; 48 h incubation): 215.61 mg/L (≈ 682 µM)
- IC50 (lung cancer cells A549): 252.27 mg/L (≈ 798 µM)
- IC50 [13]: 58.45 mg/L (≈ 185 µM)
SMILES: COc1c(-c2ccc(O)c(O)c2)oc2cc(O)cc(O)c2c1=O [Quercetin 3-methyl ether, quercetin 3-methyl ether]

- IC50 ([1]; Homo sapiens, read-out: IC50): > 400 mg/L
- IC50 ([2]; Homo sapiens, read-out: IC50): 196 mg/L (≈ 648 µM)
- IC50 (mouse glioma cells BV-2; Mus musculus, Glioma cell, read-out: IC50): > 400 mg/L
- IC50 ([3]; Homo sapiens, SGC-7901, SGC7901, 48 h incubation, read-out: IC50): > 400 mg/L
- IC50 ([4]; read-out: IC50): > 400 mg/L
- IC50 ([5]; Homo sapiens, read-out: IC50): > 400 mg/L
- IC50 ([6]; Homo sapiens, read-out: IC50): 331 mg/L (≈ 1090 µM)
- IC50 ([7]; read-out: IC50): > 400 mg/L
- IC50 ([8]; Homo sapiens, read-out: IC50): > 400 mg/L
- IC50 ([9]; read-out: IC50): 329 mg/L (≈ 1090 µM)
- IC50 ([10]; Homo sapiens, read-out: IC50): 391 mg/L (≈ 1290 µM)
- IC50 ([11]; Homo sapiens, BGC-823, BGC823, 48 h incubation, read-out: IC50): > 400 mg/L
- IC50 ([12]; Homo sapiens, Caco-2, 48 h incubation, read-out: IC50): > 400 mg/L
- IC50 (lung cancer cells A549; Homo sapiens, read-out: IC50): > 400 mg/L
- IC50 ([13]; Homo sapiens, read-out: IC50): 155 mg/L (≈ 513 µM)
SMILES: O=c1c(O)c(-c2ccc(O)c(O)c2)oc2cc(O)cc(O)c12 [Quercetin, quercetin]

SMILES: O=c1[nH]c(=O)n(C2CCCO2)cc1F (stereo not shown) [tegafur, reference compound]
- mortality of the mice [14]: all dead
